# Test results as given in patent publication US20030104030A1, “Stent for blood vessel and material for stent for blood vessel” (priority 2002, published 2003).
# Assay: amount of tranilast in the stents, measured by high performance liquid chromatography
# Assay type: physicochemical
# Conditions: impregnation in stent with supercritical CO2, 40 to 140° C.
# Description: In the experimental example 2, a plural number of luminal stents, formed of plural biodegradable polymer material, in particular plural fibers of biodegradable polymer, in which the drug was impregnated as the pressure and the temperature of CO2 were varied, were formed, and measurements were made of the amount of the drug for each of these stents.
# Of the stents, obtained in Examples 14 to 25, the amount of tranilast was measured using a high performance liquid chromatography.
compound,measurement,value
"COc1ccc(C=CC(=O)Nc2ccccc2C(=O)O)cc1OC [tranilast, N-(3,4-dimethoxycinnamoyl) anthranilic acid]",thermal decomposition of drug during impregnation,without undergoing thermal decomposition
